# Test results: patent US10213415B2, “Compounds as opioid receptor modulators” (JANSSEN PHARMACEUTICA NV, priority 2004, dated 2019)
# Values joined by “and” are separate entries in the source; they are usually repeats but may differ in a detail not shown here. Equal values may be shown once. Read-outs that look alike come from different tables or passages of the source.
# Key:
# human mu opioid receptor = target: T1, human mu opioid receptor (Homo sapiens, UniProt P35372); assay: Human Mu Opioid Receptor Binding Assay (CHO membranes, 3H-Damgo); conditions: read-out: hKi μ
# T1 construct: purchased Perkin Elmer RBHOMM400UA; host or cells: Chinese Hamster Ovary cells (recombinant expression)
# Method in brief: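 Membranes from CHO cells expressing human mu opioid receptor, 300 μg/mL, in 50 mM Tris pH 7.5, 5 mM MgCl2. Incubated with compound and ³H-Damgo (3.6 nM before mixing) for 2 h at room temperature, filtered, counted by scintillation. Nonspecific binding with 1 μM unlabelled Damgo.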
# [1] = target: T2, human delta subtype 2 opioid receptor (Homo sapiens, UniProt P41143); assay: Human Delta Opioid Receptor Binding Assay (CHO membranes, 3H-Naltrindole); conditions: read-out: hKi δ
# T2 construct: purchased Perkin Elmer RBHODM400UA; host or cells: Chinese Hamster Ovary cells (recombinant expression)
# Procedure: This assay is designed to test the ability of a compound to interfere with the binding of tritiated Naltrindole to the human delta subtype 2 opioid receptor. Membranes from Chinese Hamster Ovary cells expressing the human delta subtype 2 opioid receptor (Perkin Elmer #RBHODM400UA) are homogenized in assay buffer (50 mM Tris, pH 7.5 with 5 mM MgCl2) using a glass tissue grinder, Teflon pestle and a Steadfast Stirrer (Fisher Scientific). The concentration of membranes is adjusted to 100 μg/mL in assay buffer and 100 μL is dispensed into each well of the assay plate, a 96 well round bottom polypropylene plate. Compounds to be tested are solubilized in DMSO (Pierce), 10 mM, then diluted in assay buffer to 6× the desired final concentration. The ligand, ^3H-Naltrindole (Perkin Elmer #NET-1065) is also diluted in assay buffer to 6 nM. In a second 96 well round bottom polypropylene plate, known as the premix plate, 60 μL of the 6× compound is combined with 60 μL of 6 nM ^3H-Naltrindole. From this premix plate 50 μL is transferred to the assay plate containing the membranes, in duplicate. The assay plate is incubated for 30 min at room temperature. A GF/C 96 well filter plate (Perkin Elmer #6005174) is pretreated with 0.3% polyethylenimine for 30 min. The contents of the assay plate are filtered through the filter plate using a Packard Filtermate Harvester, and washed 3 times with 0.9% saline that is 4° C. The filter plate is dried, the underside sealed, and 30 μL Microscint20 (Packard #6013621) added to each well. A Topcount-NXT Microplate Scintillation Counter (Packard) is used to measure emitted energies in the range of 2.9 to 35 KeV. Results are compared to maximum binding, wells receiving no inhibitors. Nonspecific binding is determined in the presence of 1 μM unlabelled Naltrindole (Sigma #N115).
# [2] = test system: novel environment-stressed mice; assay: In Vivo Assay-Stress-Induced Fecal Output (Fecal Output for 1 hr); set-up: species or system mouse; conditions: for Fecal Output (# pellets) cpd: novel environment-stressed mice; for response vs control in vivo at 30 mg/kg / response vs control in vivo at 10 mg/kg: Mus musculus, po, 1 h; for # of pellets, Compound (m) 3.0 / Fecal pellet output, Compound (% control) 3.0 / Fecal pellet output, Compound (% NES) 3.0: dose 3.0, oral; for # of pellets, Compound (m) 3.0 / Fecal pellet output, Compound (% control) 3.0 / # of pellets, Compound (m) 10.0 / Fecal pellet output, Compound (% control) 10.0 / # of pellets, Compound (m) 30.0 / Fecal pellet output, Compound (% control) 30.0: NES mice; for # of pellets, Compound (m) 3.0 / # of pellets, Compound (m) 10.0 / # of pellets, Compound (m) 30.0: fecal output 1 hr; for Fecal pellet output, Compound (% control) 3.0 / Fecal pellet output, Compound (% control) 10.0 / Fecal pellet output, Compound (% control) 30.0: vs acclimated control; for Fecal pellet output, Compound (% NES) 3.0 / Fecal pellet output, Compound (% NES) 10.0 / Fecal pellet output, Compound (% NES) 30: vs vehicle NES group; for # of pellets, Compound (m) 10.0 / Fecal pellet output, Compound (% control) 10.0 / Fecal pellet output, Compound (% NES) 10.0: dose 10.0, oral; for # of pellets, Compound (m) 30.0 / Fecal pellet output, Compound (% control) 30.0: dose 30.0, oral; for Fecal pellet output, Compound (% NES) 30: dose 30, oral
# Text: This assay evaluates the fecal output in novel environment-stressed mice to that of acclimated controls.
# Methods: Adult, male, Crl:CD-1(ICR) mice, weighing ˜30-35 g were used in these studies, with a minimum of 10 mice per dose group. One group of mice was assigned as acclimated, or “non-stressed” controls. These control mice were transported from colony housing, where they were housed 3/cage in polycarbonate cages with access to food and water ad lib. to the procedure room. The mice were removed from their home cages and individually housed in 20 cm wide×20 cm deep×15 cm tall cages, equipped with a wire mesh bottom where they remained for a 16-18 hr period of acclimation to their novel environment. Mice were allowed access to food and water ad lib. during acclimation. The other groups of mice were assigned as non-acclimated, or “stressed” treatment groups. Each mouse in each group was weighed and vehicle, or test compound, was intragastrically administered by oral intubation in 0.5% methylcellulose. Mice were allowed access to water only ad lib. during the test period. After compound administrations, acclimated (control) as well as non-acclimated (stressed) mice were individually housed in a 20 cm wide×20 cm deep×15 cm tall cage, with a wire mesh bottom. An absorbant cardboard is placed beneath the cages. The number of fecal pellets excreted by each mouse was determined at hourly intervals following placement of the mice in the individual cages. Raw Data=# of fecal pellets/mouse/hr. […]
# [3] = 30 mg/kg oral, relative to acclimated control, 1 hr, read-out: Fecal Output cpd % control
# [4] = 30 mg/kg oral, relative to novel environment stress (NES) vehicle group, 1 hr, read-out: Fecal Output cpd % NES
# T1 sequence (P35372 whole entry): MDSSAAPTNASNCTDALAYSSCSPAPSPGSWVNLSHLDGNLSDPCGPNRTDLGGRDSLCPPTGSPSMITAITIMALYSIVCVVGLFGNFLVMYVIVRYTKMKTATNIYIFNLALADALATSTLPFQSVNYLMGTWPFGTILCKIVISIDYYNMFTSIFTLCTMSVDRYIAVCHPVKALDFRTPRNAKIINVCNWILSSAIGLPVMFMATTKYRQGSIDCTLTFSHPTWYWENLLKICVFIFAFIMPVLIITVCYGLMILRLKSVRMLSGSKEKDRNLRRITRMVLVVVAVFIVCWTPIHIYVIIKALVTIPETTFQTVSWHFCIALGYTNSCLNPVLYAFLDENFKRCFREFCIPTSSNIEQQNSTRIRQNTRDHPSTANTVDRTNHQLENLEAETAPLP
# T2 sequence (P41143 whole entry): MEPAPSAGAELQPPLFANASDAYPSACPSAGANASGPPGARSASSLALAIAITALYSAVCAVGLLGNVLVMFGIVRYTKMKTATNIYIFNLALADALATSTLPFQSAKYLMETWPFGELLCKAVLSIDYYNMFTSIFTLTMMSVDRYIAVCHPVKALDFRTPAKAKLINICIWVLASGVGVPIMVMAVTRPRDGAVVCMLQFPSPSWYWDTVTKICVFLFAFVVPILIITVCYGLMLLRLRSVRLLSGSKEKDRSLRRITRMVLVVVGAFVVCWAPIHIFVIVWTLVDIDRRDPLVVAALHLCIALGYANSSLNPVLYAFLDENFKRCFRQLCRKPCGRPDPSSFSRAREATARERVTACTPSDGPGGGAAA
SMILES,Ki (human mu opioid receptor),Ki [1],"Fecal Output (# pellets) cpd ([2]; 30 mg/kg oral, 1 hr)","response vs control in vivo at 30 mg/kg [2, 3]","response vs control in vivo at 30 mg/kg [2, 4]",further results
COc1ccc(CN(C(=O)[C@@H](N)Cc2c(C)cc(O)cc2C)[C@@H](C)c2nc(-c3ccccc3)c[nH]2)cc1OC [Cpd 102],3.5 nM,5.2 nM,3.4 pellets,59.6%,22.7%,"# of pellets, Compound (m) 3.0 [2]: 6.9; Fecal pellet output, Compound (% control) 3.0 [2]: 130.2 % control; Fecal pellet output, Compound (% NES) 3.0 [2]: 64.5 % NES; # of pellets, Compound (m) 10.0 [2]: 4.5; Fecal pellet output, Compound (% control) 10.0 [2]: 84.9 % control; Fecal pellet output, Compound (% NES) 10.0 [2]: 42.06 % NES; # of pellets, Compound (m) 30.0 [2]: 2.22; Fecal pellet output, Compound (% control) 30.0 [2]: 42 % control; Fecal pellet output, Compound (% NES) 30 [2]: 20.77 % NES"
Cc1cc(O)cc(C)c1C[C@H](N)C(=O)N(Cc1ccoc1)[C@@H](C)c1nc(-c2ccccc2)c[nH]1 [Cpd 55],1.8 nM,44 nM,8.3 pellets,213%,58.9%,
"Cc1cc(C(N)=O)cc(C)c1C[C@H](N)C(=O)N(C(C)c1ccccc1)[C@@H](C)c1nc(-c2ccccc2)c[nH]1 (single isomer, unassigned) [Cpd 111]",6.4 nM,307 nM,4.4 pellets,,,"Fecal Output cpd % control ([2]; 30 mg/kg oral, relative to acclimated control, 1 hr): 60.8%; Fecal Output cpd % NES ([2]; 30 mg/kg oral, relative to novel environment stress (NES) vehicle group, 1 hr): 42.5%"
Cc1cc(O)cc(C)c1C[C@H](N)C(=O)N(Cc1ccncc1)[C@@H](C)c1nc(-c2ccccc2)c[nH]1 [Cpd 57],0.66 nM,2.2 nM,7.6 pellets,195%,53.9%,
Cc1cc(O)cc(C)c1C[C@H](N)C(=O)N(Cc1ccc(C(=O)O)cc1)[C@@H](C)c1nc(-c2ccccc2)c[nH]1 [Cpd 80],1.09 nM,0.95 nM,,,75.3%,
Cc1cc(C(N)=O)cc(C)c1C[C@H](N)C(=O)N(Cc1nc(-c2ccccc2)c[nH]1)[C@H](C)c1ccccc1 [Cpd 94],4.1 nM,403 nM,9.4 pellets,348%,103%,
CNc1ccc(CN(C(=O)C(N)Cc2c(C)cc(O)cc2C)C(C)c2nc(-c3ccccc3)c[nH]2)cc1 (stereo not shown) [Cpd 78],2.4 nM,28.9 nM,3.3 pellets,91.7%,45.2%,
Cc1cc(O)cc(C)c1C[C@H](N)C(=O)N(Cc1c(Cl)cccc1Cl)[C@@H](C)c1nc(-c2ccccc2)c[nH]1 [Cpd 97],19.2 nM,6.3 nM,4.8 pellets,65.8%,37.2%,"# of pellets, Compound (m) 3.0 [2]: 14 and 9.1; Fecal pellet output, Compound (% control) 3.0 [2]: 226.2 % control and 189.6 % control; Fecal pellet output, Compound (% NES) 3.0 [2]: 119 % NES and 90.1 % NES; # of pellets, Compound (m) 10.0 [2]: 7.5 and 10.4; Fecal pellet output, Compound (% control) 10.0 [2]: 123.0 % control and 216.7 % control; Fecal pellet output, Compound (% NES) 10.0 [2]: 64.66 % NES and 103 % NES; # of pellets, Compound (m) 30.0 [2]: 3.5 and 2.3; Fecal pellet output, Compound (% control) 30.0 [2]: 57 % control and 48 % control; Fecal pellet output, Compound (% NES) 30 [2]: 30.17 % NES and 22.77 % NES"
Cc1cc(O)cc(C)c1C[C@H](N)C(=O)N(Cc1ccccn1)[C@@H](C)c1nc(-c2ccccc2)c[nH]1 [Cpd 93],0.9 nM,9.5 nM,5.0 pellets,139%,45%,"# of pellets, Compound (m) 3.0 [2]: 6.2; Fecal pellet output, Compound (% control) 3.0 [2]: 229.6 % control; Fecal pellet output, Compound (% NES) 3.0 [2]: 74.7 % NES; # of pellets, Compound (m) 10.0 [2]: 5.5; Fecal pellet output, Compound (% control) 10.0 [2]: 203.7 % control; Fecal pellet output, Compound (% NES) 10.0 [2]: 66.27 % NES; # of pellets, Compound (m) 30.0 [2]: 3.2; Fecal pellet output, Compound (% control) 30.0 [2]: 119 % control; Fecal pellet output, Compound (% NES) 30 [2]: 38.55 % NES"
Cc1cc(O)cc(C)c1C[C@H](N)C(=O)N(Cc1cccnc1)[C@@H](C)c1nc(-c2ccccc2)c[nH]1 [Cpd 92],0.25 nM,5.4 nM,9.2 pellets,256%,82.9%,
Cc1cc(C(N)=O)cc(C)c1C[C@H](N)C(=O)N(C)[C@H](C)c1nc(-c2ccccc2)c[nH]1 [Cpd 144],1.3 nM,251 nM,11.5 pellets,311%,84.6%,
Cc1cc(C(N)=O)cc(C)c1C[C@H](N)C(=O)N(Cc1ccccc1)Cc1nc(-c2ccccc2)c[nH]1 [Cpd 107],2.95 nM,584 nM,13.1 pellets,230%,87.3%,
Cc1cc(O)cc(C)c1C[C@H](N)C(=O)N(Cc1ccc(Cl)c(Cl)c1)Cc1nc(-c2ccccc2)c[nH]1 [Cpd 87],12.6 nM,38.9 nM,10.3 pellets,141%,79.8%,
Cc1cc(C(N)=O)cc(C)c1C[C@H](N)C(=O)N(C(C)C)[C@@H](C)c1nc(-c2ccccc2)c[nH]1 [Cpd 143],1.6 nM,69 nM,5.2 pellets,69.3%,56.5%,"Fecal Output (# pellets) cpd ([2]; 10 mg/kg oral, 1 hr): 9.1 pellets; response vs control in vivo at 10 mg/kg ([2]; 10 mg/kg oral, relative to acclimated control, 1 hr, read-out: Fecal Output cpd % control): 246%; response vs control in vivo at 10 mg/kg ([2]; 10 mg/kg oral, relative to novel environment stress (NES) vehicle group, 1 hr, read-out: Fecal Output cpd % NES): 66.9%"
Cc1cc(O)cc(C)c1C[C@H](N)C(=O)N(Cc1nc(-c2cccc(C(=O)O)c2)c(C)[nH]1)C(C)C [Cpd 133],11.5 nM,108 nM,9.9 pellets,180%,81.8%,
Cc1cc(O)cc(C)c1C[C@H](N)C(=O)N(C(C)C)[C@@H](CO)c1nc(-c2ccccc2)c[nH]1 [Cpd 118],1.04 nM,316 nM and 212 nM,7.2 pellets,134%,60.2%,
Cc1cc(O)cc(C)c1C[C@H](N)C(=O)N(Cc1ccc(Cl)cc1Cl)[C@@H](C)c1nc(-c2ccccc2)c[nH]1 [Cpd 103],23 nM,9.7 nM,10.2 pellets,140%,79.1%,
Cc1cc(C(N)=O)cc(C)c1C[C@H](N)C(=O)N(C(C)C)[C@@H](CO)c1nc(-c2ccccc2)c[nH]1 [Cpd 85],5.4 nM,1170 nM,7.9 pellets,146%,65.8%,
